Active and inactive are the calls of the source. The calls are words filed in the database; no cut-off is given here.
Tests used:
[1] = tested on: Nucleic Acid; assay: Induction of photochemical DNA cleavage in Escherichia coli pBR322 assessed as form 2 level at 15 uM in pH 6.0 phosphate buffer measured after 4 mins of UV irradiation; format: nucleic-acid assay
[2] = tested on: Nucleic Acid; assay: Induction of photochemical DNA cleavage in Escherichia coli pBR322 assessed as form I level at 15 uM in pH 8.0 phosphate buffer measured after 10 mins of UV irradiation; format: nucleic-acid assay
[3] = tested on: Nucleic Acid; assay: Induction of photochemical DNA cleavage in Escherichia coli pBR322 assessed as form 2 level at 15 uM in pH 7.0 phosphate buffer measured after 10 mins of UV irradiation; format: nucleic-acid assay
[4] = tested on: Nucleic Acid; assay: Induction of photochemical DNA cleavage in Escherichia coli pBR322 assessed as form I level at 15 uM in pH 7.0 phosphate buffer measured after 0.5 mins of UV irradiation; format: nucleic-acid assay
[5] = tested on: Nucleic Acid; assay: Induction of photochemical DNA cleavage in Escherichia coli pBR322 assessed as form 2 level at 15 uM in pH 8.0 phosphate buffer measured after 1 min of UV irradiation; format: nucleic-acid assay
[6] = tested on: Nucleic Acid; assay: Induction of photochemical DNA cleavage in Escherichia coli pBR322 assessed as form I level at 15 uM in pH 7.0 phosphate buffer measured after 1 min of UV irradiation; format: nucleic-acid assay
[7] = tested on: Nucleic Acid; assay: Induction of photochemical DNA cleavage in Escherichia coli pBR322 assessed as form I level at 15 uM in pH 8.0 phosphate buffer measured after 4 mins of UV irradiation; format: nucleic-acid assay
[8] = tested on: Nucleic Acid; assay: Induction of photochemical DNA cleavage in Escherichia coli pBR322 assessed as form 3 level at 15 uM in pH 7.0 phosphate buffer measured after 0.5 mins of UV irradiation; format: nucleic-acid assay
[9] = tested on: Nucleic Acid; assay: Induction of photochemical DNA cleavage in Escherichia coli pBR322 assessed as form 2 level at 15 uM in pH 6.0 phosphate buffer measured after 8 mins of UV irradiation; format: nucleic-acid assay
[10] = tested on: Nucleic Acid; assay: Induction of DNA damage in human […] cells at 30 uM incubated for 3 hrs by single cell gel electrophoresis; format: cell-based
[11] = tested on: Nucleic Acid; assay: Induction of photochemical DNA cleavage in Escherichia coli pBR322 assessed as form 2 level at 15 uM in pH 8.0 phosphate buffer measured after 2 mins of UV irradiation; format: nucleic-acid assay
[12] = tested on: Nucleic Acid; assay: Induction of photochemical DNA cleavage in Escherichia coli pBR322 assessed as form 2 level at 15 uM in pH 8.0 phosphate buffer measured after 0.5 mins of UV irradiation; format: nucleic-acid assay
[13] = tested on: A-375; assay: Drug uptake in human A375 cells at 30 uM incubated for 30 mins by fluorescence microscopy; format: ADME, cell-based; details: a-375, 0.5 h
[14] = tested on: Nucleic Acid; assay: Induction of photochemical DNA cleavage in Escherichia coli pBR322 assessed as form I level at 15 uM in pH 8.0 phosphate buffer measured after 2 mins of UV irradiation; format: nucleic-acid assay
[15] = tested on: Nucleic Acid; assay: Induction of photochemical DNA cleavage in Escherichia coli pBR322 assessed as form 3 level at 15 uM in pH 8.0 phosphate buffer measured after 2 mins of UV irradiation; format: nucleic-acid assay
[16] = tested on: Nucleic Acid; assay: Induction of photochemical DNA cleavage in Escherichia coli pBR322 assessed as form 2 level at 15 uM in pH 6.0 phosphate buffer measured after 0.5 mins of UV irradiation; format: nucleic-acid assay
[17] = tested on: Nucleic Acid; assay: Induction of photochemical DNA cleavage in Escherichia coli pBR322 assessed as form 3 level at 15 uM in pH 8.0 phosphate buffer measured after 1 min of UV irradiation; format: nucleic-acid assay
[18] = tested on: Nucleic Acid; assay: Induction of photochemical DNA cleavage in Escherichia coli pBR322 assessed as form I level at 15 uM in pH 6.0 phosphate buffer measured after 8 mins of UV irradiation; format: nucleic-acid assay
[19] = tested on: Nucleic Acid; assay: Induction of photochemical DNA cleavage in Escherichia coli pBR322 assessed as form I level at 15 uM in pH 8.0 phosphate buffer measured after 1 min of UV irradiation; format: nucleic-acid assay
[20] = tested on: Nucleic Acid; assay: Induction of photochemical DNA cleavage in Escherichia coli pBR322 assessed as form 2 level at 15 uM in pH 6.0 phosphate buffer measured after 10 mins of UV irradiation; format: nucleic-acid assay
[21] = tested on: Nucleic Acid; assay: Induction of photochemical DNA cleavage in Escherichia coli pBR322 assessed as form 2 level at 15 uM in pH 7.0 phosphate buffer measured after 1 min of UV irradiation; format: nucleic-acid assay
[22] = tested on: Nucleic Acid; assay: Induction of photochemical DNA cleavage in Escherichia coli pBR322 assessed as form 2 level at 15 uM in pH 8.0 phosphate buffer measured after 10 mins of UV irradiation; format: nucleic-acid assay
[23] = tested on: Nucleic Acid; assay: Induction of photochemical DNA cleavage in Escherichia coli pBR322 assessed as form I level at 15 uM in pH 8.0 phosphate buffer measured after 8 mins of UV irradiation; format: nucleic-acid assay
[24] = tested on: Nucleic Acid; assay: Induction of photochemical DNA cleavage in Escherichia coli pBR322 assessed as form 3 level at 15 uM in pH 6.0 phosphate buffer measured after 10 mins of UV irradiation; format: nucleic-acid assay
[25] = tested on: Nucleic Acid; assay: Induction of photochemical DNA cleavage in Escherichia coli pBR322 assessed as form 3 level at 15 uM in pH 8.0 phosphate buffer measured after 6 mins of UV irradiation; format: nucleic-acid assay
[26] = tested on: Nucleic Acid; assay: Induction of photochemical DNA cleavage in Escherichia coli pBR322 assessed as form 2 level at 15 uM in pH 6.0 phosphate buffer measured after 1 min of UV irradiation; format: nucleic-acid assay
[27] = tested on: Nucleic Acid; assay: Induction of photochemical DNA cleavage in Escherichia coli pBR322 assessed as form I level at 15 uM in pH 8.0 phosphate buffer measured after 0.5 mins of UV irradiation; format: nucleic-acid assay
[28] = tested on: Nucleic Acid; assay: Induction of photochemical DNA cleavage in Escherichia coli pBR322 assessed as form 3 level at 15 uM in pH 6.0 phosphate buffer measured after 4 mins of UV irradiation; format: nucleic-acid assay
[29] = tested on: Nucleic Acid; assay: Induction of photochemical DNA cleavage in Escherichia coli pBR322 assessed as form I level at 15 uM in pH 8.0 phosphate buffer measured after 6 mins of UV irradiation; format: nucleic-acid assay
[30] = tested on: Nucleic Acid; assay: Induction of photochemical DNA cleavage in Escherichia coli pBR322 assessed as form 3 level at 15 uM in pH 7.0 phosphate buffer measured after 8 mins of UV irradiation; format: nucleic-acid assay
[31] = tested on: Nucleic Acid; assay: Induction of photochemical DNA cleavage in Escherichia coli pBR322 assessed as form 2 level at 15 uM in pH 7.0 phosphate buffer measured after 2 mins of UV irradiation; format: nucleic-acid assay
[32] = tested on: Nucleic Acid; assay: Induction of photochemical DNA cleavage in Escherichia coli pBR322 assessed as form 3 level at 15 uM in pH 7.0 phosphate buffer measured after 4 mins of UV irradiation; format: nucleic-acid assay
[33] = tested on: Nucleic Acid; assay: Induction of photochemical DNA cleavage in Escherichia coli pBR322 assessed as form 2 level at 15 uM in pH 8.0 phosphate buffer measured after 4 mins of UV irradiation; format: nucleic-acid assay
[34] = tested on: A-375; assay: Drug uptake in human A375 cells at 30 uM incubated for 30 mins by differential interference contrast microscopy; format: ADME, cell-based; details: a-375, 0.5 h
[35] = tested on: Nucleic Acid; assay: Induction of photochemical DNA cleavage in Escherichia coli pBR322 assessed as form I level at 15 uM in pH 6.0 phosphate buffer measured after 6 mins of UV irradiation; format: nucleic-acid assay

NCCCC[C@H](N)C(=O)NCCCC[C@H](N)C(=O)Nc1ccc(C#Cc2c(F)c(F)nc(F)c2F)cc1.O=C(O)C(F)(F)F
Activity [1]: 65.1%
Activity [2]: 26.3%
Activity [3]: 47.8%
Activity [4]: 64.6%
Activity [5]: 16.1%
Activity [6]: 52.7%
Activity [7]: 58.6%
Activity [8]: 0%
Activity [9]: 35%
Activity [10]: Active
Activity [11]: 22.2%
Activity [12]: 13.6%
Drug uptake [13]: Active
Activity [14]: 77.8%
Activity [15]: 0%
Activity [16]: 60%
Activity [17]: 0%
Activity [18]: 0%
Activity [19]: 83.9%
Activity [20]: 21.3%
Activity [21]: 47.3%
Activity [22]: 52.3%
Activity [23]: 42.3%
Activity [24]: 78.7%
Activity [25]: 0%
Activity [26]: 52.7%
Activity [27]: 86.4%
Activity [28]: 34.9%
Activity [29]: 40.8%
Activity [30]: 28.1%
Activity [31]: 41.5%
Activity [32]: 25%
Activity [33]: 41.4%
Drug uptake [34]: Active
Activity [35]: 0%
